Measurements taken from ChEMBL document CHEMBL1201862, “PubChem BioAssay data set” (2004).
“And” between values parts separate entries of the source, which are not always exact repeats. Equal values may be shown once.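 Protocol summary: plate cells (96-well), add compound at 5 concentrations, incubate 48 h, interpolate endpoints linearly. GI50 = concentration required for 50% inhibition of growth.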 The source made the active and inactive calls. No stated cut-off is given here; in the data, active = GI50 up to about 1.1 µM and inactive = higher.

Tests used:
Assay in all cases: NCI anticancer screen, dose series, 48 h
[1] = test system: HOP-62
[2] = test system: PC-3
[3] = test system: M14
[4] = test system: Hs-578T
[5] = test system: DU-145
[6] = test system: MDA-N
[7] = test system: NCI-H226
[8] = test system: NCI/ADR-RES
[9] = test system: U-251
[10] = test system: MCF7
[11] = test system: MDA-MB-435
[12] = test system: T47D
[13] = test system: MDA-MB-231
[14] = test system: SR
[15] = test system: HCC 2998
[16] = test system: RXF 393
[17] = test system: K562
[18] = test system: BT-549
[19] = test system: 786-0

Row | SMILES | GI50 [1] | GI50 [2] | GI50 [3] | GI50 [4] | GI50 [5] | GI50 [6] | GI50 [7] | GI50 [8] | GI50 [9] | GI50 [10] | GI50 [11] | GI50 [12] | GI50 [13] | GI50 [14] | GI50 [15] | GI50 [16] | GI50 [17] | GI50 [18] | GI50 [19]
1 | O=C1OC(c2ccccc2)=N/C1=C\c1ccccc1 | 29.1 µM (inactive) and 25.8 µM (inactive) | > 100 µM (inactive) | 26.9 µM (inactive) and 30.4 µM (inactive) | 58.7 µM (inactive) and 36.7 µM (inactive) | > 100 µM (inactive) and 59 µM (inactive) | 44.7 µM (inactive) | 24 µM (inactive) and 36.6 µM (inactive) | 29.2 µM (inactive) and 40.7 µM (inactive) | 32.1 µM (inactive) and 35.1 µM (inactive) | 48.4 µM (inactive) and 96.6 µM (inactive) | 64 µM (inactive) and 56 µM (inactive) | > 100 µM (inactive) | > 100 µM (inactive) | 28.4 µM (inactive) and 14.5 µM (inactive) | > 100 µM (inactive) and 67.9 µM (inactive) | – | – | – | –
2 | Nc1ccc2cc(S(=O)(=O)O)cc(O)c2c1/N=N/c1ccc(NC(=O)Nc2ccc(/N=N/c3c(N)ccc4cc(S(=O)(=O)O)cc(O)c34)c(S(=O)(=O)O)c2)cc1S(=O)(=O)O | > 100 µM (inactive) | – | – | – | – | – | > 100 µM (inactive) | > 100 µM (inactive) | > 100 µM (inactive) | > 100 µM (inactive) | – | – | – | – | > 100 µM (inactive) | > 100 µM (inactive) | > 100 µM (inactive) | – | –
3 | N/C(=N\O)N/N=C/c1cc2c(cc1Cl)OCO2 | 36.3 µM (inactive) | – | – | – | – | – | 29.1 µM (inactive) | 18 µM (inactive) | 34.5 µM (inactive) | 22.3 µM (inactive) | – | – | – | – | 26 µM (inactive) | 38.4 µM (inactive) | 26.1 µM (inactive) | – | –
4 | CN(CC(=O)O)c1ncc2c(n1)-c1ccccc1OC2c1ccccc1 (stereo not given) | > 100 µM (inactive) | 61.1 µM (inactive) | > 100 µM (inactive) | > 100 µM (inactive) | > 100 µM (inactive) | > 100 µM (inactive) | 86.7 µM (inactive) | > 100 µM (inactive) | > 100 µM (inactive) | > 100 µM (inactive) | > 100 µM (inactive) | – | > 100 µM (inactive) | 37 µM (inactive) | – | 56.1 µM (inactive) | 71.8 µM (inactive) | – | –
5 | CC1=C2c3ccccc3N(C(=O)/C=C/C(=O)O)[C@H]2[C@H]2C(=O)OC(=O)[C@H]2C1 | > 10 µM (inactive) | > 10 µM (inactive) | > 10 µM (inactive) | > 10 µM (inactive) | > 10 µM (inactive) | > 10 µM (inactive) | > 10 µM (inactive) | > 10 µM (inactive) | > 10 µM (inactive) | > 10 µM (inactive) | > 10 µM (inactive) | > 10 µM (inactive) | > 10 µM (inactive) | > 10 µM (inactive) | > 10 µM (inactive) | > 10 µM (inactive) | – | – | –
6 | CN(C)CC(CO)(CN(C)C)CN(C)C | > 100 µM (inactive) | > 100 µM (inactive) | > 100 µM (inactive) | – | > 100 µM (inactive) | > 100 µM (inactive) | > 100 µM (inactive) | > 100 µM (inactive) | > 100 µM (inactive) | > 100 µM (inactive) | – | – | – | > 100 µM (inactive) | – | > 100 µM (inactive) | > 100 µM (inactive) | > 100 µM (inactive) | > 100 µM (inactive)
7 | O=C(CCC(NC(=O)OCc1ccccc1)C(=O)OCc1ccccc1)Nc1cccc(OCc2ccccc2)c1 (stereo not given) | 28.6 µM (inactive) | 13.2 µM (inactive) | 20.4 µM (inactive) | 18.4 µM (inactive) | 28.4 µM (inactive) | 32.1 µM (inactive) | 29.1 µM (inactive) | 36.2 µM (inactive) | 30.3 µM (inactive) | 20.7 µM (inactive) | 20 µM (inactive) | 19.5 µM (inactive) | 25.4 µM (inactive) | 18.5 µM (inactive) | 42.7 µM (inactive) | 23.8 µM (inactive) | 24.2 µM (inactive) | – | 17.7 µM (inactive)
8 | Clc1ccc(CCn2ccc3ccccc32)c(Cl)c1 | > 100 µM (inactive) | > 100 µM (inactive) | > 100 µM (inactive) | > 100 µM (inactive) | > 100 µM (inactive) | – | > 100 µM (inactive) | > 100 µM (inactive) | > 100 µM (inactive) | > 100 µM (inactive) | > 100 µM (inactive) | – | > 100 µM (inactive) | > 100 µM (inactive) | > 100 µM (inactive) | > 100 µM (inactive) | > 100 µM (inactive) | > 100 µM (inactive) | > 100 µM (inactive)
9 | CN(C)N1C(=O)C(=O)N(c2cccc3ccccc23)C1=O | > 10 µM (inactive) | > 10 µM (inactive) | > 10 µM (inactive) | > 10 µM (inactive) | > 10 µM (inactive) | > 10 µM (inactive) | > 10 µM (inactive) | > 10 µM (inactive) | > 10 µM (inactive) | > 10 µM (inactive) | > 10 µM (inactive) | > 10 µM (inactive) | > 10 µM (inactive) | > 10 µM (inactive) | > 10 µM (inactive) | > 10 µM (inactive) | > 10 µM (inactive) | – | –
10 | CC1(CO)COS(=O)OC1 (stereo not given) | – | > 100 µM (inactive) | – | > 100 µM (inactive) | > 100 µM (inactive) | > 100 µM (inactive) | > 100 µM (inactive) | > 100 µM (inactive) | > 100 µM (inactive) | > 100 µM (inactive) | > 100 µM (inactive) | > 100 µM (inactive) | > 100 µM (inactive) | > 100 µM (inactive) | > 100 µM (inactive) | > 100 µM (inactive) | – | – | –
11 | COc1ccc2c(c1)-c1oc3ccccc3c(=O)c1CO2 | 57.4 µM (inactive) | 31.9 µM (inactive) | 57.7 µM (inactive) | – | 40.1 µM (inactive) | 23.4 µM (inactive) | 50.4 µM (inactive) | 29.4 µM (inactive) | 28.7 µM (inactive) | 36.9 µM (inactive) | 25.6 µM (inactive) | 29.9 µM (inactive) | 36.3 µM (inactive) | – | 46.5 µM (inactive) | – | 65 µM (inactive) | 37.3 µM (inactive) | 31.7 µM (inactive)
12 | c1ccc(/N=C(\N2CCCCC2)N(CCN2CCCCC2)c2ccccc2)cc1 | 1.43 µM (inactive) | 0.53 µM (active) | 1.5 µM (inactive) | 0.944 µM (active) | 2.1 µM (inactive) | 0.718 µM (active) | 2.62 µM (inactive) | 1.65 µM (inactive) | 1.39 µM (inactive) | – | 1.51 µM (inactive) | 1.08 µM (active) | 1.39 µM (inactive) | 0.28 µM (active) | 1.69 µM (inactive) | – | 0.254 µM (active) | – | –
13 | OC1C2CCC3C2CC(C(O)(c2ccccc2)c2ccccc2)C13 (stereo not given) | 63.2 µM (inactive) | 21.4 µM (inactive) | 65.8 µM (inactive) | 45.9 µM (inactive) | > 100 µM (inactive) | 33.3 µM (inactive) | 28.6 µM (inactive) | 36.6 µM (inactive) | 70.3 µM (inactive) | 84.5 µM (inactive) | 32.6 µM (inactive) | 79.3 µM (inactive) | 29.6 µM (inactive) | 32.7 µM (inactive) | > 100 µM (inactive) | 34.7 µM (inactive) | 18.2 µM (inactive) | – | 37.5 µM (inactive)
14 | COc1ccc(Nc2nc(N)c(C(=O)c3c[nH]c4ccccc34)s2)cc1 | 8.02 µM (inactive) | 2.15 µM (inactive) | 1.23 µM (inactive) | – | 2.2 µM (inactive) | 0.31 µM (active) | 11.1 µM (inactive) | 1 µM (active) | 1.58 µM (inactive) | 1.03 µM (active) | 0.161 µM (active) | 3.6 µM (inactive) | 9.91 µM (inactive) | 0.0655 µM (active) | – | 2.03 µM (inactive) | 0.397 µM (active) | 2.43 µM (inactive) | 2.15 µM (inactive)
15 | Cc1ccc(O)c(C(c2ccc([N+](=O)[O-])cc2)c2cc(C)ccc2O)c1 | 10.8 µM (inactive) | 3.59 µM (inactive) | 11.7 µM (inactive) | 7.69 µM (inactive) | 12.1 µM (inactive) | – | 15.9 µM (inactive) | 10.7 µM (inactive) | 16.8 µM (inactive) | 4.98 µM (inactive) | 10.9 µM (inactive) | 11.2 µM (inactive) | 12 µM (inactive) | 3.98 µM (inactive) | 2.99 µM (inactive) | 8.09 µM (inactive) | 12.2 µM (inactive) | – | 21.2 µM (inactive)
16 | Cc1c2c(cc3c1[nH]c1ccccc13)C(c1ccc(Cl)cc1)=NCC2 | 0.738 µM (active) | – | – | – | – | – | 1.3 µM (inactive) | 0.264 µM (active) | 0.608 µM (active) | 0.236 µM (active) | – | – | – | – | 0.991 µM (active) | 0.465 µM (active) | 0.328 µM (active) | – | –
17 | O=C(O)C(=C\c1ccc2c(c1)OCO2)/C(=C/c1ccc2c(c1)OCO2)C(=O)O | > 100 µM (inactive) | > 100 µM (inactive) | > 100 µM (inactive) | > 100 µM (inactive) | > 100 µM (inactive) | > 100 µM (inactive) | > 100 µM (inactive) | > 100 µM (inactive) | > 100 µM (inactive) | > 100 µM (inactive) | > 100 µM (inactive) | > 100 µM (inactive) | – | > 100 µM (inactive) | > 100 µM (inactive) | > 100 µM (inactive) | > 100 µM (inactive) | > 100 µM (inactive) | –
18 | Cc1c2cc[n+](C)cc2c(C)c2c1[nH]c1ccccc12 | 0.45 µM (active) | 4.83 µM (inactive) | 7.45 µM (inactive) | – | 0.52 µM (active) | 1.92 µM (inactive) | 0.312 µM (active) | – | 0.421 µM (active) | 2.44 µM (inactive) | 9.02 µM (inactive) | 0.157 µM (active) | – | 0.497 µM (active) | 2.28 µM (inactive) | 1.7 µM (inactive) | 3.05 µM (inactive) | 2.38 µM (inactive) | –
